Source: US20230265069A1, “Small Molecule Inhibitors That Block the Budding of Enveloped Viruses” (priority 2020, published 2023)
Read-outs that look alike come from different tables or passages of the source.

Legend:
HIV-1 = settings: 293T cells in culture; cited from earlier work
HSV-2 = HSV-2 release from infected Vero cells, plaque assay; settings: read-out: EC50 (μM) Inhibition of HSV-2 Budding at 24 h

| Compound | Inhibition of release of infectious HIV-1 from 293T cells (earlier report) (HIV-1) | EC50 (HSV-2; HSV-2 infected Vero cells, virus released into media, plaque assay) | EC50 (HSV-2; Human alphaherpesvirus 2, Vero, 24 h) |
| --- | --- | --- | --- |
| Esomeprazole | quantitatively inhibit | 140 µM | – |
| COc1ccc2[nH]c([S+]([O-])Cc3ncc(C)c(OC)c3C)nc2c1 (stereo not drawn) [Omeprazole] | – | – | 78 µM |
